{
  "source": "patent US20230128322A1",
  "about": "“SYK KINASE INHIBITORS AS TREATMENT FOR MALARIA” (Purdue Research Foundation, priority 2012, published 2023)",
  "key": {"[1]": {"conditions": "cited from earlier work"}, "band 3 [2]": {"system": "band 3", "assay": "orthovanadate-induced band 3 tyrosine phosphorylation in erythrocytes", "type": "cell-based, human", "conditions": "10 uM, 1 hour, then 2 mM orthovanadate"}, "parasite in RBCs": {"system": "parasite in RBCs", "assay": "microscopy of Giemsa stained blood smears of treated infected RBCs", "type": "cell-based", "procedure": "FIGS. 9A-9E are microscopy photographs of standard blood smears. Smears were prepared on glass slides, fixed with 100% methanol, and stained in 10% Giemsa modified stain diluted in PBS for 10 minutes at room temperature.\nFIGS. 10A-D are microscopy photographs of standard blood smears. Smears were prepared on glass slides, fixed with 100% methanol, and stained in 10% Giemsa modified stain diluted in PBS for 10 minutes at room temperature.\nFIGS. 11A-C are microscopy photographs of standard blood smears. Smears were prepared on glass slides, fixed with 100% methanol, and stained in 10% Giemsa modified stain diluted in PBS for 10 minutes at room temperature."}, "malaria infected RBCs": {"system": "malaria infected RBCs", "assay": "ex vivo parasitemia in blood from malaria infected Vietnamese patients (PCR)", "type": "cell-based, human", "conditions": "48 hours of incubation, various concentrations"}, "[3]": {"conditions": "cited from earlier work", "remark": "listed apart in the source"}, "[4]": {"system": "P. falciparum Dd2-infected erythrocytes", "assay": "parasitemia of synchronous P. falciparum Dd2 cultures"}, "[5]": {"system": "P falciparum strain Palo Alto", "assay": "parasitemia / re-infection in P. falciparum-infected RBC cultures", "type": "cell-based, Plasmodium falciparum", "conditions": "for parasitemia level as % of the initial level: added 24 hours after start of culture, 72 hours after treatment; for effect on level of parasitemia during second cycle (re-infection): all concentrations examined (0.1-10 μM); for effect on level of parasitemia during first parasite cycle: first 48 hours, inhibitor added 24 hours after start", "procedure": "Inhibition of Syk in RBCs. Infected and non-infected RBCs were treated with Syk kinase inhibitor 11 (FIG. 2) at different concentrations and at different times after the start of the cultures. Cultivation of P. falciparum-infected RBCs. Freshly drawn blood (Rh+) from healthy adults of both sexes was used following informed consent in all studies. […] To assess total parasitemia and the relative numbers of ring and trophozoite stage cells, slides were prepared from cultures at the indicated times and stained with Diff-Quik reagent prior to analysis. 1000 cells were then scored by microscopic analysis of the cell staining patterns. To evaluate the potential of Syk kinase inhibitors as a therapy for treating malaria, the effect of Syk kinase inhibitors on preventing re-infection of additional erythrocytes was evaluated. Based on the hypothesis that destabilization of the RBCM is beneficial to the parasite during egress, blocking RBCM destabilization by inhibiting Syk-mediated tyrosine phosphorylation of band 3 may result in a reduction in the spread of infected cells. To test this, erythrocyte cultures were infected with P. falciparum and then treated 24 hours later with the Syk kinase inhibitor (0, 0.1, 1, and 10 uM concentrations) (FIG. 2). In this set of experiments Syk kinase inhibitors have been added 24 hours after the start of the parasite cultures. Data are means of 2 or 4 experiments with standard deviations. The data presented represents the mean of two to four experiments. The level of parasitemia was then calculated at 24, 48, 72 and 96 hours after addition of the Syk kinase inhibitor. The efficiency of the Syk kinase inhibitor at different stages of the parasite development cycle was examined. […] Growth inhibition was calculated as a % re-invasion rate relative to untreated cultures. […] However, when infected cultures are treated at 24 hours after the initial infection, nearly 100% of parasite re-infection is inhibited. This time point was confirmed in a flow cytometric analysis where the number of merozoites released from isolated schizonts, were measured with or without Syk kinase inhibitor treatment. […] This is consistent with our proposed mechanism of the Syk kinase inhibitor blocking the necessary destabilization of the erythrocyte cell membrane required for egress. Inhibition of Syk in RBCs. Infected and non-infected RBCs were treated with Syk kinase inhibitor IV (FIG. 6) at different concentrations and at different times after the start of the cultures. Cultivation of P. falciparum-infected RBCs. Freshly drawn blood (Rh+) from healthy adults of both sexes was used following informed consent in all studies. […] To assess total parasitemia and the relative numbers of ring and trophozoite stage cells, slides were prepared from cultures at the indicated times and stained with Diff-Quik reagent prior to analysis, 1000 cells were then scored by microscopic analysis of the cell staining patterns. To test this, erythrocyte cultures were infected with P. falciparum and then treated 24 hours later with the Syk kinase inhibitor (0, 0.1, and 10 uM concentrations) (FIG. 6). The data presented represents the mean of two to four experiments. The level of parasitemia was then calculated at 24, 48, 72 and 96 hours after addition of the Syk kinase inhibitor."}, "[6]": {"system": "P. falciparum-infected RBCs", "assay": "vesiculation (microparticle release) of infected RBCs", "type": "cell-based, human", "conditions": "10 μM, added 12 hours after infection", "procedure": "Micro-vesicle Quantification. Infected and non-infected RBCs were washed 3× in RPMI 1640-HEPES medium and then resuspended at 10% hematocrit in the same medium containing a protease inhibitor cocktail (Sigma-Aldrich). […] Cells were then centrifuged at 2000×g to pellet the RBCs followed by a centrifugation step at 20,000×g for 10 minutes to pellet the RBC membranes. RBC vesicles present in the supernatant were labeled with anti-glycophorin A antibodies or with eosine-maleimide for labeling band 3, and quantified using a FACSCalibur cytometer (BD Biosciences) and the Cell Quest analysis software (BD Biosciences). Vesicles were selected using forward and side light scatter (FSC and SSC signals set to logarithmic amplification). A total of 40,000 events were analyzed. The amount of MPs released by infected RBCs was also measured. […] MPs were isolated from the supernatant by differential centrifugation (as in the INODs paper) and their amount was estimated measuring their band 3 content ([…] blots). Data are mean of 2 experiments with SD (in the second experiment we could measure only the ast times). […] To measure vesiculation, microparticles were isolated from the culture supernatants and quantified based on their band 3 content (determined by Western blotting) [Pantaleo, Free Radic Biol Med 2012, 52: 527-536]."}, "band 3 [7]": {"system": "band 3", "assay": "band 3 tyrosine phosphorylation in parasite cultures (Western blot)", "type": "cell-based, human", "conditions": "10 μM added at 12 hours; at 48 hours post infection", "procedure": "Immunoblot Analysis. […] The nitrocellulose membranes were then probed using either fluorescein-5'-maleimide (0.25 mg/ml) (Pierce) or anti-phosphotyrosine antibody (Santa Cruz, Calif.) and anti-Syk (Santa Cruz, Calif.) antibodies and with anti-band 3 (Sigma Aldrich). The blots were then analyzed using an 800 nm laser scanner (Odyssey, Licor, USA). […] In this set of experiments, Syk kinase inhibitors were added 12 hours after the start of the parasite cultures. The content of band 3 was measured by western blotting. The percent of band 3 phosphorylation was also measured. […] Band 3 phosphorylation levels have been normalized for the band 3 content ([…] blot). The expectation is that band 3 tyrosine phosphorylation would also be diminished in the Syk kinase inhibitor treated cultures. This is indeed the case. The % of band tyrosine phosphorylation was measured via Western blotting with an anti-phosphotyrosine antibody. […] The cultures were then normalized to the vandate induced level of phosphorylation. […] This is consistent with the hypothesis that just prior to egress the parasite would phosphorylate band 3, disrupt its interaction with ankyrin and result in a destabilized membrane that is more susceptible to breech as required during egress."}, "[8]": {"system": "artemisinin resistant parasites in malaria infected blood", "assay": "ex vivo parasite growth in artemisinin resistant blood of patient 4 (PCR)", "type": "cell-based, human", "procedure": "A blood sample was acquired from patient 4 prior to treatment with artemisinin and 13 day after treatment with artemisinin. […] These parasites are considered artemisinin resistant since there is a persistent parasitemia in the patient, even after artemisinin therapy.\nUpon arrival of each sample, malaria infected RBCs were separated from plasma and leukocytes by three washes in wash medium (RPMI 1640 medium containing 2 mM glutamine, 24 mM NaHCO, 25 mM Hepes, 20 mM glucose, and 32 mg/m gentamicin, pH 6.80).\nSmears of infected erythrocytes were obtained to assess initial parasitemia. Slides were fixed in 100% methanol and stained with 1/10 dilution of Giemsa solution, incubated for 10 min at room temperature, washed with water, dried, and observed under oil immersion lens (100×) for microscopic analysis. An aliquot was also saved for PCR analysis.\nMalaria infected erythrocytes were re-suspended at 2% hematocrit in growth medium consisting of RPMI 1640 supplemented with 2 mM glutamine, 24 mM NaHCO, 25 mM Hepes, 20 mM glucose, and […] gentamicin, pH 6.80 and 10% heat inactivated human serum. Infected blood was aliquoted into 96 well plates pretreated with Syk kinase inhibitor H and incubated at 37° C. in CO2 incubation bags. After 48 hours of incubation, the cultures were processed and analyzed by PCR."}},
  "note": "“Also recorded” adds a separate entry of the source. Where a name gives a salt, the structure may show the parent alone.",
  "data": [
    {"smiles": "COc1ccc2c(c1)c(C=C1C(=O)Nc3ccc(S(N)(=O)=O)cc31)cn2CC(=O)O", "note": "[Compd 14]", "values": [
      {"measurement": "Solubility", "setting": "[1]", "value": "[…]"}
    ]},
    {"smiles": "COc1ccc2c(c1)c(C=C1C(=O)Nc3ccc(S(N)(=O)=O)cc31)cn2CCCO", "note": "[Compd 18]", "values": [
      {"measurement": "Solubility", "setting": "[1]", "value": "<0.1", "unit": "mg·L"}
    ]},
    {"smiles": "NS(=O)(=O)c1ccc2c(c1)C(=Cc1cn(CCCC(=O)N3CCCCC3)c3ccccc13)C(=O)N2", "note": "[Compd 25]", "values": [
      {"measurement": "Solubility", "setting": "[1]", "value": "[…]"}
    ]},
    {"smiles": "Cc1ccc(NC(=O)c2ccc(CN3CCN(C)CC3)cc2)cc1Nc1nccc(-c2cccnc2)n1", "note": "[Imatinib mesylate, 4-[(4-Methyl-1-piperazinyl)methyl]-N-[4-methyl-3-[[4-(3-pyridinyl)-2-pyrimidinyl]amino]-phenyl]benzamide methanesulfonate]", "values": [
      {"measurement": "band 3 tyrosine phosphorylation", "setting": "band 3 [2]", "value": "completely inhibited"},
      {"measurement": "parasite development in blood smears", "setting": "parasite in RBCs; 8 μM, up to 121 hour", "value": "able to delay the lifecycle of the parasite"},
      {"measurement": "parasite morphology in blood smears", "setting": "parasite in RBCs; 10 μM, listed as Gleevec, methanesulfonate", "value": "immature trophs from the first cycle that have not matured; also recorded: merozoites stuck or trapped inside the RBCs that cannot egress; also recorded: pyknotic parasites, or dead parasites in condensed form"},
      {"measurement": "parasitemia of infected patient blood", "setting": "malaria infected RBCs", "value": "effective at reducing the parasitemia"},
      {"measurement": "time post-dose at which Cmax is achieved", "setting": "[3]; oral administration", "value": "2 to 4", "unit": "h"},
      {"measurement": "parasitemia during the first cycle", "setting": "[4]; first 44 hours, added 20 hours after start", "value": "did not cause significant changes in parasitemia"},
      {"measurement": "re-infection at the second cycle", "setting": "[4]; higher concentrations", "value": "fail to reinfect healthy erythrocytes"},
      {"measurement": "viability after 4 cycles of growth", "setting": "[4]; higher concentrations", "value": "remain nonviable"},
      {"measurement": "effect on parasite cycles", "setting": "[4]; starting at 8 μM", "value": "able to delay the cycles of the parasite"}
    ]},
    {"smiles": "Cc1ccc(NC(=O)c2ccc(CN3CCNCC3)cc2)cc1Nc1nccc(-c2cccnc2)n1", "note": "[N-desmethyl derivative]", "values": [
      {"measurement": "plasma AUC of metabolite as % of the AUC for imatinib", "setting": "[3]; humans", "value": "about 15%"},
      {"measurement": "elimination half-life", "setting": "[3]; oral administration in healthy volunteers", "value": "~40", "unit": "h"}
    ]},
    {"smiles": "NCCNc1ncc(C(N)=O)c(Nc2cccc(C(F)(F)F)c2)n1", "note": "[Syk kinase inhibitor II, 2-(2-Aminoethylamino)-4-(3-trifluoromethylanilino)-pyrimidine-5-carboxamide]", "values": [
      {"measurement": "parasitemia level as % of the initial level", "setting": "[5]; 1 μM", "value": "~80", "unit": "%"},
      {"measurement": "inhibition of parasite re-infection", "setting": "[5]; 1 μM, added at 40 and 48 hours post initial infection", "value": "little impact"},
      {"measurement": "parasitemia level as % of the initial level", "setting": "[5]; 10 μM", "value": "~80", "unit": "%"},
      {"measurement": "inhibition at 1 µM", "setting": "[5]; Plasmodium falciparum, 1 μM, added 24 hours after the initial infection, read-out: inhibition of parasite re-infection", "value": "~100", "unit": "%"},
      {"measurement": "effect on level of parasitemia during second cycle (re-infection)", "setting": "[5]", "value": "significantly dropped the level of parasitemia"},
      {"measurement": "effect on level of parasitemia during first parasite cycle", "setting": "[5]", "value": "no effect"},
      {"measurement": "effect when culture is treated prior to infection with normal merozoites", "setting": "[5]; pre-treatment of new culture", "value": "no effect in blocking the parasitemia"},
      {"measurement": "inhibition of vesiculation vs untreated parasite cultures", "setting": "[6]", "value": "~50", "unit": "%"},
      {"measurement": "maximum level of tyrosine phosphorylated band 3 (relative to 2 mM vanadate)", "setting": "band 3 [7]", "value": "~35", "unit": "%"},
      {"measurement": "parasitemia of infected patient blood", "setting": "malaria infected RBCs", "value": "completely eliminating parasitemia"},
      {"measurement": "IC50", "setting": "[8]; Homo sapiens, sample pre-treatment, parasitemia 0.1%, read-out: IC50 Syk kinase inhibitor II", "value": "< 600", "unit": "nM"},
      {"measurement": "elimination of parasites in malaria infected blood", "setting": "[8]; pre- and post-artemisinin treatment", "value": "completely eliminate parasites"}
    ]},
    {"smiles": "COc1ccc(-c2cc3nccn3c(NC3N=CC=CC3C(N)=O)n2)cc1OC", "note": "(centres unmarked) [Syk kinase inhibitor IV]", "values": [
      {"measurement": "parasitemia level as % of the initial level", "setting": "[5]; 10 μM", "value": "~80", "unit": "%"},
      {"measurement": "effect on level of parasitemia during second cycle (re-infection)", "setting": "[5]", "value": "significantly dropped the level of parasitemia"},
      {"measurement": "effect on level of parasitemia during first parasite cycle", "setting": "[5]", "value": "did not cause changes of parasitemia"}
    ]}
  ]
}
